Measurements published in patent US9101671B2, “Methods and compositions related to clot binding compounds” (Sanford-Burnham Medical Research Institute, priority 2007, dated 2015).
Where no end group is shown, it is not given here.

Assays:
[1] = test system: MDA-MB-435 breast cancer xenografts; experiment: Tumor homing and tissue distribution of intravenously injected particles (fluorescence microscopy); assay type: in vivo, mice
Protocol: CREKA-SPIO particles were intravenously injected (4 mg Fe/kg) into Balb/c nude mice bearing MDA-MB-435 human breast cancer xenograft tumors measuring 1-1.5 cm in diameter. The mice were sacrificed by perfusion 5-6 hours later and tissues were examined for CREKA-SPIO fluorescence (green). Nuclei were stained with DAPI (blue). (A) Distribution of CREKA-SPIO in tissues from MDA-MB-435 tumor mice that received 2 hours earlier an injection of PBS (A, upper panels) or Ni/DSPC/CHOL liposomes (Ni-liposomes) containing 0.2 μmol Ni in 200 μl of PBS (A, lower panels). (B) Plasma circulation half-life of CREKA-SPIO following different treatments. At least 4 time points were collected. Data were fitted to mono-exponential decay using Prizm software (GraphPad, San Diego, Calif.), and the half-life values were compared in unpaired t-test (***p<0.0001, n=10). (C) Accumulation of CREKA-SPIO nanoparticles in tumor vessels. Mice were injected and tissues collected as in panel A. Fluorescent intravascular CREKA-SPIO particles overlap with iron oxide viewed in transmitted light. Magnification: 600×. (D) Control organs of Ni-liposome/CREKA-SPIO-injected mice. Occasional spots of fluorescence are seen in the kidneys and lungs. […] Representative results from at least 3 independent experiments are shown. Magnification A and D, 200×; C, 600×.
(§1) For intravenous injections, the animals were anesthetized with intraperitoneal Avertin, and liposomes (2 μmol DSPC) and/or nanoparticles (1-4 mg Fe/kg body weight) were injected into the tail vein. The animals were sacrificed 5-24 h post-injection by cardiac perfusion with PBS under anesthesia, and organs were dissected and analyzed for particle homing. To suppress liver macrophages, mice were intravenously injected with liposomal clodronate suspension (100 μl per mouse), and the mice were used for experiments 24 hours later.

[2] = test system: tumor vessels; experiment: Nanoparticle-induced blood clotting in vessels (fibrin(ogen)/CD31 staining, microscopy); assay type: in vivo, mice
Protocol: (§2) Mice bearing MDA-MB-435 xenografts were injected with Ni-liposomes and CREKA-SPIO nanoparticles as described in the legend to FIG. 2. The mice were perfused 6 hours after the nanoparticle injection and tissues were collected. (A) Upper panels: Co-localization of nanoparticle fluorescence with CD31 staining in blood vessels; Middle panels: Co-localization of nanoparticle fluorescence and anti-fibrin(ogen) staining in tumor blood vessels. Inset—an image showing CREKA-SPIO distributed along fibrils in a tumor blood vessel; Lower panels: Lack of co-localization of nanoparticle fluorescence with anti-CD41 staining for platelets. (B) Intravital confocal microscopy of tumors using DiI-stained red blood cells as a marker of blood flow. The arrow points to a vessel in which stationary erythrocytes indicate obstruction of blood flow. Blood flow in the vessel above is not obstructed. Six successive frames from a 1-min movie (Movie 2 in Supplementary Material) are shown. (C) CREKA-coated liposomes co-localize with fibrin in tumor vessels. The results are representative of 3 independent experiments. Magnification: A and C, 600×, B, 200×.
(§3) Mice bearing MDA-MB-435 human breast cancer xenografts were intravenously injected with PBS or a bolus of 800 U/kg of heparin followed 120 min later by Ni-liposomes (or PBS) and CREKA-SPIO (or control nanoparticles). The mice received additional heparin by intraperitoneal injections (a total of 1000 U/kg) or PBS throughout the experiment. (A) Tumors were removed 6 hours after the nanoparticle injection, and magnetic signal in the tumor after different treatments was determined with SQUID. Aminated dextran SPIO served as a particle control (control SPIO). […] The magnetization values were normalized to dry weight of the tissue. Results from 3 experiments are shown. (B) Quantification of heparin effect on clotting in blood vessels. Mice were pretreated with PBS (white bars) or heparin (black bars) as described above, followed by Ni liposomes/CREKA-SPIO nanoparticles. Three sections from two tumors representing each treatment were stained with anti-CD31 for blood vessels, and the percentage of vessels positive for fluorescence and fluorescent clots was determined. […] (C) A representative example of the appearance of CREKA-SPIO particles in tumor vessels of mice treated with heparin. (D) Near-infrared imaging of mice that received Ni-liposomes followed by Cy7-labeled CREKA-SPIO with or without heparin pretreatment. The images were acquired 8 hours after the injection of the CREKA-SPIO particles using an Odyssey 2 NIR scanner (Li-COR Biosciences, Lincoln, Nebr.). The images shown are composites of 2 colors, red (700 nm channel, body and chow autofluorescence) and green (800 nm channel, Cy7). Arrows point to the tumors, arrowheads to the liver. Note the strong decrease in signal from the tumor in the heparin-pretreated mouse. A representative experiment out of 3 is shown.
The low magnification (40×) was used to produce these images because only blood vessels in which clotting had concentrated the CREKA-SPIO fluorescence are visible at this magnification. […]
as §1, with “To suppress liver macrophages, mice were intravenously injected with liposomal clodronate suspension (100 μl per mouse), and the mice were used for experiments 24 hours later.” left out

[3] = test system: mouse plasma clots; experiment: Nanoparticle binding to mouse plasma clots in vitro
Protocol: (§4) Phage binding to clotted plasma proteins was determined as described (Pilch 2006). CREKA-SPIO and control SPIO were added to freshly formed plasma clots in the presence or absence of free CREKA peptide. After 10 min incubation, the clots were washed 4 times in PBS, transferred to a new tube and digested in 100 μl concentrated nitric acid. The digested material was diluted in 2 ml distilled water and the iron concentration was determined using inductively coupled plasma-optical emission spectroscopy (ICP-OES, PerkinElmer, Norwalk, Conn.).

[4] = test system: MDA-MB-435 human breast cancer xenografts; experiment: Tumor magnetization by SQUID magnetometer; assay type: in vivo, mice
Protocol: as §3, with “The images were acquired 8 hours after the injection of the CREKA-SPIO particles using an Odyssey 2 NIR scanner (Li-COR Biosciences, Lincoln, Nebr.). The images shown are composites of 2 colors, red (700 nm channel, body and chow autofluorescence) and green (800 nm channel, Cy7). Arrows point to the tumors, arrowheads to the liver. Note the strong decrease in signal from the tumor in the heparin-pretreated mouse. A representative experiment out of 3 is shown.” left out

[5] = test system: platelets; experiment: Role of platelets in nanoparticle homing; assay type: in vivo, mice; conditions: platelet depletion with anti-CD41 monoclonal antibody
Protocol: (A). Blood was drawn 5 min post-injection of 4 mg/kg of CREKA-SPIO into mice and a 50 μl aliquot was run through a magnetic column. Bound CREKA-SPIO particles were eluted form the column, concentrated on a slide, and stained with anti-CD41 antibody. Some of the particles appear to be associated with platelets. (B). A low-magnification image (40×) showing CREKA-SPIO homing and clot formation in a tumor from a platelet-depleted mouse. Platelet depletion was accomplished by treating mice with 0.1 mg of an anti-CD41 monoclonal antibody as described (Van der Heyde and Gramaglia (2005)). The mice subsequently received Ni-liposomes/CREKA-SPIO as described in the legend of FIG. 2.

[6] = test system: tumor blood vessels; experiment: Intravital confocal microscopy of tumor blood flow; assay type: in vivo, mice; conditions: 4 mg/kg i.v.; Ni-liposome pre-injection; DiI-labeled erythrocytes as flow marker
Protocol: as §2
Tumor blood flow in MDA-MB 435 xenograft-bearing mice was observed by intravital microscopy. Mice were pre-injected with Ni-liposomes and 5×10^8 of DiI-labeled erythrocytes. […] Movies were recorded at 10 min intervals up to 120 min post-injection.

[7] = test system: human plasma clots; experiment: Nanoparticle binding to human plasma clots in vitro
Protocol: as §4

[8] = Nanoparticle clearance (plasma circulation half-life); assay type: in vivo, mice
[9] = after Ni-liposome pre-treatment
[10] = intravenous injection, no decoy pretreatment
[11] = plain liposomes as decoy particles, injected before

binding to plasma clots [3]: bound to mouse and human plasma clots
binding to plasma clots [7]: bound to mouse and human plasma clots
Substance: CREKA-SPIO: Fluorescein-labeled CREKA coupled onto 50 nm superparamagnetic, amino dextran-coated iron oxide nanoparticles; at least 8,000 peptide molecules per particle (Fluorescein-CREKA; not fully specified; printed as fluorescein-CREKA; also: coupled to amino dextran-coated iron oxide nanoparticle)
tumor homing ([1]; Ni-liposome pretreatment 5 min or 48 h prior to injection): greatly increased the tumor homing
accumulation in the spleen [1, 9]: unchanged or even enhanced
particles in the liver [1, 9]: Fewer particles
accumulation in tumor [1, 10]: did not accumulate effectively
particles in reticuloendothelial system (RES) tissues [1, 10]: high concentration of particles
tumor homing [1, 11]: prolonged the blood half-life and tumor homing
particles in other organs ([1]; whether Ni-liposomes were used or not): minor amounts of CREKA-SPIO particles or no particles at all
tumor vessel lumens filled with fluorescent masses (occlusion) ([2]; after liposome pretreatment): up to 20%
intravascular clotting, effect of heparin ([2]; heparin pretreatment): essentially eliminated the intravascular clotting
number of vessels with nanoparticles bound to the vessel walls, effect of heparin ([2]; heparin pretreatment): did not significantly reduce
colocalization of fibrin(ogen) staining and particle fluorescence in liver vessels ([2]; liver): no colocalization
clotting in kidneys and lungs (non-RES tissues) ([2]; low magnification images): no clotting in these tissues, with the exception of very rare clots in the kidneys
greater accumulation in tumor, Ni-liposome-pretreated compared to PBS-pretreated mice ([4]; SQUID and fluorescence signal, tumors removed 6 hours after injection): about 6 fold
reduction of tumor accumulation of nanoparticles by heparin ([4]; heparin injected prior to CREKA-SPIO, SQUID): more than 50%
effect of thrombocytopenia on homing to MDA-MB-435 tumors [5]: no noticeable effect
clot formation and blood flow in tumor blood vessels [6]: time-dependent clot formation and obstruction of blood flow
prolongation in particle half-life ([8]; RES macrophages in the liver depleted with liposomal clodronate): ~5 fold
blood half-life [8, 11]: prolonged the blood half-life
prolongation of half-life in the blood ([8]; pretreatment with intravenously injected Ni-liposomes): about 5 factor
